According to patent US9018173B2, “Materials and methods for suppressing inflammatory and neuropathic pain” (Indiana University Research and Technology Corp., priority 2010, dated 2015):
Entries after “also recorded” stand apart in the source; their conditions may differ. Residues, ends and D or L forms follow the SMILES beside them.

Experiments:
[1] = test system: depression/despair-associated behavior; assay: Tail suspension test (TST); type: in vivo, C57BL6 mice; conditions: for Tail Suspension Test: Active: C57BL6 mice, 1 h after injection, 5 min test
Description: The light-dark box test and the elevated plus maze were used as measures of anxiety-associated behaviors. The tail suspension test was performed to evaluate despair- and depression-associated behavior.
Depression/Despair-behavior testing. Since rodents such as mice and rats display immobile postures when placed in inescapable stressful situations, immobility behavior in the tail suspension test (TST) or forced swim test (FST) is used as a measure of “depression” or “despair”-associated behavior. Furthermore, administering antidepressant treatments prior to testing reduces immobility behavior. Therefore TST and FST are often used to screen novel drugs for depressant or anti-depressant properties.
Tail suspension test as a measure of depression-associated behavior. Immediately following the EPM test, the TST was conducted according to standard procedure between 8:00 AM and 2:00 PM. Cryan, J. F., Mombereau, C., & Vassout, A. The tail suspension test as a model for assessing antidepressant activity: review of pharmacological and genetic studies in mice. Neurosci. Biobehay. Rev. 29, 571-625 (2005). Briefly, each mouse was suspended by the tail at a height of 40 cm by taping the rail to a horizontal bar so that the tail is vertical to the bar. Behavior was video recorded for 5 min and later analyzed by an experimenter, whom was blind to the treatments. […] If a mouse climbed its tail the mouse was gently pulled back down and the trial continued. Mice that climbed their tails for more than 20% of the trial (i.e. >60 seconds) were eliminated from the final analysis. Duration and frequency of immobility was the main parameters measured. Mice injected with the scrambled control peptide were immobile approximately 26% of the TST duration which is equivalent to baseline immobility durations (approximately 27%) observed in C57B16 mice in another recent study.

[2] = test system: tail kinking and body contortion; assay: Observation of side-effects after i.p. injection in rats; type: in vivo, rat; conditions: 20 mg/kg i.p.
Source text: Referring now to FIG. 24. Biodistribution and side-effects of TAT-CBD3. […] Oxygenated blood was collected from a cardiac puncture. […] The 95% confidence limits are also indicated.

[3] = test system: CaV2.2 surface expression in CAD cells; assay: CaV2.2 surface expression in CAD cells (immunocytochemistry, surface biotinylation); type: cell-based
Description: Catecholamine A Differentiated (CAD) cells. CAD cells were grown at 37° C. and in 5% CO2 (Sarstedt, Newton, N.C.) in Ham's F12/EMEM medium (GIBCO, Grand Island, N.Y.), supplemented with 8% fetal bovine serum (FBS; Sigma, St. Louis, Mo.) and 1% penicillin/streptomycin ([…], 10,000 U/ml penicillin G sodium and 10,000 μg/ml streptomycin sulfate). Cells were passaged every 6-7 days at a 1:25 dilution.
Transient transfection. Adherent cultures were transfected with cDNAs using Lipofectamine 2000 (Invitrogen) as described previously. About 2-3% transfection efficiencies in hippocampal neurons was achieved routinely, 35-40% in DRG, and 75-80% in CAD cells transfected with this method. Typically, cultured cells were transfected with equal amounts of different cDNA constructs and experiments performed two days later.
Cell Surface Biotinylation. Biotinylation was performed as described. […]
Immunocytochemistry. […] Images were acquired on a Nikon Ti swept-field confocal microscope using a 60×, 1.4 NA lens and standard FITC/Texas red fluorescence cubes with a cooled Cascade 512B digital camera (Photometrics, Tucson, Ariz.). […]

Compound | Tail Suspension Test: Active ([1]; 0.1 mg/kg i.p.) | Tail Suspension Test: Active ([1]; 1 mg/kg i.p.) | Tail Suspension Test: Active ([1]; 10 mg/kg i.p.) | TST time spent immobile and frequency of immobile episodes ([1]; any dose, compared to TAT-Scramble) | duration of contortion and tail kinking [2] | onset of contortion and tail kinking after injection [2] | side-effects observed [2] | number of episodes of contortion and tail kinking ([2]; 60 min observation) | CaV2.2 localisation on co-expression ([3]; co-expression of CaV2.2 with CBD3 in CAD cells) | surface expression of co-expressed CaV2.2 (surface biotinylation) ([3]; expressed in CAD cells)
CC(C)C[C@H](NC(=O)CNC(=O)[C@H](CCCNC(=N)N)NC(=O)[C@@H]1CCCN1C(=O)[C@@H](NC(=O)CNC(=O)[C@H](CCCNC(=N)N)NC(=O)[C@H](CC(C)C)NC(=O)[C@H](CCC(=O)O)NC(=O)[C@H](C)NC(=O)[C@H](CC(C)C)NC(=O)[C@H](CCCNC(=N)N)NC(=O)[C@H](CO)NC(=O)[C@H](CCCNC(=N)N)NC(=O)[C@H](C)NC(=O)[C@H](CCCNC(=N)N)NC(=O)[C@H](CCCNC(=N)N)NC(=O)[C@H](CCCNC(=N)N)NC(=O)[C@H](CCC(N)=O)NC(=O)[C@H](CCCNC(=N)N)NC(=O)[C@H](CCCNC(=N)N)NC(=O)[C@H](CCCCN)NC(=O)[C@H](CCCCN)NC(=O)[C@H](CCCNC(=N)N)NC(=O)CNC(=O)[C@@H](N)Cc1ccc(O)cc1)C(C)C)C(=O)O [TAT-CBD3] (H-YGRKKRRQRRRARSRLAELRGVPRGL-OH; N-terminus and C-terminus assumed) | 238.1 ± 13.6 s | 235.2 ± 13.0 s | 239.7 ± 10.9 s | neither time spent immobile, nor frequencies of immobile episodes were altered | dissipated fifteen seconds following their first appearance | about 15 seconds | whole-body lordosis-like contortion (black arrow) and tail kinking; also recorded: Transient contortions were observed | Only a single episode of contortion and tail kinking movement | – | –
ARSRLAELRGVPRGL (CBD3) | – | – | – | – | – | – | – | – | almost complete retention of the channel in cytoplasmic aggregates | prevented surface expression
